# Data reported in patent publication US12690586B2, “Herbicidal malonamides” (BASF SE, priority 2020, dated 2026).
# Legend:
# Assay in all cases: greenhouse post-emergence herbicidal test
# Type in all cases: in vivo
# Conditions in all cases: post-emergence method, application rate 0.125 kg/ha; scale 0 to 100
# [1] = system: Abutilon theophrasti (ABUTH)
# From the text: (§1) The culture containers used were plastic flowerpots containing loamy sand with approximately 3.0% of humus as the substrate. The seeds of the test plants were sown separately for each species.
# (§2) For the pre-emergence treatment, the active ingredients, which had been suspended or emulsified in water, were applied directly after sowing by means of finely distributing nozzles. The containers were irrigated gently to promote germination and growth and subsequently covered with transparent plastic hoods until the test plants had rooted. This cover caused uniform germination of the test plants, unless this had been impaired by the active ingredients. For the post-emergence treatment, the test plants were first grown to a height of 3 to 15 cm, depending on the plant habit, and only then treated with the active ingredients which had been suspended or emulsified in water. For this purpose, the test plants were either sown directly and grown in the same containers, or they were first grown separately as seedlings and transplanted into the test containers a few days prior to treatment.
# (§3) Depending on the species, the test plants were kept at 10-25° C. or 20-35° C., respectively. The test period extended over 2 to 4 weeks. During this time, the test plants were tended, and their response to the individual treatments was evaluated.
# (§4) Evaluation was carried out using a scale from 0 to 100. 100 means no emergence of the test plants, or complete destruction of at least the aerial moieties, and 0 means no damage, or normal course of growth. A good herbicidal activity is given at values of 65 to 90 and a very good herbicidal activity is given at values of 90 to 100.
# (§5) The test plants used in the greenhouse experiments were of the following species: […]
# [2] = system: Alopecurus myosuroides (ALOMY)
# From the text: as §1, §2, §3, §4, §5
# [3] = system: Avena fatua (AVEFA)
# From the text: as §1, §2, §3, §4, §5
structure (smiles),measurement,setting,value
"COC(=O)[C@@H]1C=C[C@H](NC(=O)C2(C(=O)Nc3cc(F)cc(F)c3)CC2)C1 [I.2, methyl (1S,4R)-4-{1-[(3,5-difluorophenyl)carbamoyl]cyclopropaneamido}cyclopent-2-ene-1-carboxylate]",herbicidal activity against ABUTH,[1],good (A good herbicidal activity is given at values of 65 to 90)
same,herbicidal activity against ALOMY,[2],very good (a very good herbicidal activity is given at values of 90 to 100)
same,herbicidal activity against AVEFA,[3],very good (a very good herbicidal activity is given at values of 90 to 100)
